For data set [1] the following is noted: cited from earlier work.
The conditions of data set [2]: previous attempts, literature; cited from earlier work.
For data set [3] the following is noted: concentrations higher than 30%; cited from earlier work.
Data set [4] is described as follows: Ex vivo dissolution of solid WON debris by candidate debridement compounds. On the set-up: species or system human. On the procedure: To perform preliminary proof-of-concept testing, solid WON debris was collected from seven patients undergoing endoscopic necrosectomy. […] Several candidate compounds that might be suitable, alone or in combination, for WON debris dissolution were identified. The candidate debridement compounds were tested on ex vivo samples to assess their capacity for dissolving WON debris.

With `[O][Cl+][O-]` [Chlorine dioxide, reference compound], the “Effect compared to 5.8% NaOCl” value in data set [1] (chlorine dioxide 13.8%) is “shown to be similar”.
Consider `OO` [Hydrogen peroxide, reference compound], for which the “Success as chemical dissolution agent to aid endoscopic necrosectomy” value (from here on “Success as chemical dissolution agent”) in data set [2] is “minimal success”. Moreover, the “Toxicity (local damage)” value in data set [3] was “shown to be toxic”.
For `OCl` [NaOCl, Sodium hypochlorite], the Pulp dissolution result in data set [1] (8.25% NaOCl, dental surgery studies (Cullen et al., 2015)) is recorded as “rapid pulp dissolution”. Moreover, the “Solvent properties in WON samples” value in data set [4] (ex vivo, concentration of 5% (FIG. 4)) is given as “excellent solvent properties”. Besides, the “Time to breakdown of human pancreas necrosis debris” value in data set [4] (petri dish, dilute sodium hypochlorite 2.5% (FIG. 4)) was “within minutes”.
For the compound `CC(C)=O` [acetone, reference compound], the “Effect on WON debris (dissolution)” value in data set [4] (ex vivo samples from patients undergoing endoscopic necrosectomy, lipophilic solvent) was “minimal to no effect”.
For the compound “streptokinase: previously tried chemical dissolution agent to aid endoscopic necrosectomy”, the “Success as chemical dissolution agent” value in data set [2] is given as “minimal success”.
On to “tissue plasminogen activator: previously tried chemical dissolution agent to aid endoscopic necrosectomy”, for which, in data set [2], the “Success as chemical dissolution agent” value is recorded as “minimal success”.
